Data: ChEMBL document CHEMBL5653602, “Biochemical characterization of GSK1070916, a potent and selective inhibitor of Aurora B and Aurora C kinases with an extremely long residence time1” (Biochem J, 2009)
pIC50, pKi: −log10 of the molar value. Active and inactive are the calls of the source. The rule behind the calls is not given here.

Key:
[1] = biological target: T1, Aurora kinase B/Inner centromere protein (Homo sapiens) (UniProt Q96GD4+Q9NQS7)
Description: Binding affinity to human AurB/INCENP assessed as dissociation half life

[2] = biological target: T2, Aurora kinase B/Inner centromere protein (Homo sapiens, UniProt Q96GD4); experiment: Inhibition of human AurB/INCENP in PBS using Biotin-Ahx-RARRRLSFFFFAKKK-NH2 as substrate incubated for 30 mins in presence of ATP; format: protein-complex assay
T2 sequence (Q96GD4 whole entry): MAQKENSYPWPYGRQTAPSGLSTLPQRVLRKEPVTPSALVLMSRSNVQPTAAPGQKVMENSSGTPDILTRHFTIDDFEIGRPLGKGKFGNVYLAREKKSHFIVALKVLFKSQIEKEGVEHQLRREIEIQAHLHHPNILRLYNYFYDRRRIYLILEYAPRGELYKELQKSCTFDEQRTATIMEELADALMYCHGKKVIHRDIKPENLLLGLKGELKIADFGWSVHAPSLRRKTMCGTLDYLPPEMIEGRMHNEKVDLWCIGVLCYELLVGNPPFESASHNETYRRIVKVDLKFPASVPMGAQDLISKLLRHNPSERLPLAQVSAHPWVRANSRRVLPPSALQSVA
T2 sequence (Q9NQS7 whole entry, further chain): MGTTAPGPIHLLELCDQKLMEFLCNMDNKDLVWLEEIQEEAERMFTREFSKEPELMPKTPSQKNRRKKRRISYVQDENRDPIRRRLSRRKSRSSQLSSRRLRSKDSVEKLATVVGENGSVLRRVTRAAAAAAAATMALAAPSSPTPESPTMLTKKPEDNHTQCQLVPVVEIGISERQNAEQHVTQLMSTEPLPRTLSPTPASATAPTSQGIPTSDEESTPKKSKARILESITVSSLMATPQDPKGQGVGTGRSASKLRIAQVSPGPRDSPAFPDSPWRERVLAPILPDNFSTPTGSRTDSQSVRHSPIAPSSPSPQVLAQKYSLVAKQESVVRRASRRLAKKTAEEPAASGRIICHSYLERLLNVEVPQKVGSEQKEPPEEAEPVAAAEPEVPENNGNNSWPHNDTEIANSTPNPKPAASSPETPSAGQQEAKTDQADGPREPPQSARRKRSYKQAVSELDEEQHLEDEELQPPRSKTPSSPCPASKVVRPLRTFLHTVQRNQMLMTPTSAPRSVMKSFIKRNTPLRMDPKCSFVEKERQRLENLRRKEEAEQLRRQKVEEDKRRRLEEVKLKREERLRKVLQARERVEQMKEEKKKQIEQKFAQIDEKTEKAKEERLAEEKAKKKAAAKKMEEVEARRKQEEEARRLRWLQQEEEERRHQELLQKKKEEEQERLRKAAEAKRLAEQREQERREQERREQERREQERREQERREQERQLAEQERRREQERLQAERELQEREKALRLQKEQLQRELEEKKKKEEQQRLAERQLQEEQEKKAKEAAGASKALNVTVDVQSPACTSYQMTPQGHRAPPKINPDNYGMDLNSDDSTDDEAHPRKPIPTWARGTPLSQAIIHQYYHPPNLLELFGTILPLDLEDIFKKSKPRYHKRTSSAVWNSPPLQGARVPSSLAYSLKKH

Aurora-C/INCENP [3] = biological target: T3, Aurora-C/INCENP (Homo sapiens, UniProt Q9NQS7+Q9UQB9); experiment: Inhibition of human AurC/INCENP in PBS using Biotin-Ahx-RARRRLSFFFFAKKK-NH2 as substrate incubated for 30 mins in presence of ATP; format: protein-complex assay
T3 sequence (Q9UQB9 whole entry): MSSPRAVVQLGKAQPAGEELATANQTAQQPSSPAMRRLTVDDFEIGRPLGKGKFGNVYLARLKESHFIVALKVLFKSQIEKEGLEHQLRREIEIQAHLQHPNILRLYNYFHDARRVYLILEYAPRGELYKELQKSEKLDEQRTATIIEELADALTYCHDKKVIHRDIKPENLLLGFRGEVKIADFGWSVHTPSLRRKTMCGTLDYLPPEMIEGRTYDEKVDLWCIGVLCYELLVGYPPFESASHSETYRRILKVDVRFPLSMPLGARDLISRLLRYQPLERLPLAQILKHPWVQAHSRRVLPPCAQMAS
T3 sequence (Q9NQS7 whole entry): as the sequence (Q9NQS7 whole entry, further chain) above

[4] = biological target: Vascular endothelial growth factor receptor 1 (Homo sapiens, UniProt P17948); experiment: Inhibition of FLT1 (unknown origin)
Vascular endothelial growth factor receptor 1, sequence (P17948 whole entry): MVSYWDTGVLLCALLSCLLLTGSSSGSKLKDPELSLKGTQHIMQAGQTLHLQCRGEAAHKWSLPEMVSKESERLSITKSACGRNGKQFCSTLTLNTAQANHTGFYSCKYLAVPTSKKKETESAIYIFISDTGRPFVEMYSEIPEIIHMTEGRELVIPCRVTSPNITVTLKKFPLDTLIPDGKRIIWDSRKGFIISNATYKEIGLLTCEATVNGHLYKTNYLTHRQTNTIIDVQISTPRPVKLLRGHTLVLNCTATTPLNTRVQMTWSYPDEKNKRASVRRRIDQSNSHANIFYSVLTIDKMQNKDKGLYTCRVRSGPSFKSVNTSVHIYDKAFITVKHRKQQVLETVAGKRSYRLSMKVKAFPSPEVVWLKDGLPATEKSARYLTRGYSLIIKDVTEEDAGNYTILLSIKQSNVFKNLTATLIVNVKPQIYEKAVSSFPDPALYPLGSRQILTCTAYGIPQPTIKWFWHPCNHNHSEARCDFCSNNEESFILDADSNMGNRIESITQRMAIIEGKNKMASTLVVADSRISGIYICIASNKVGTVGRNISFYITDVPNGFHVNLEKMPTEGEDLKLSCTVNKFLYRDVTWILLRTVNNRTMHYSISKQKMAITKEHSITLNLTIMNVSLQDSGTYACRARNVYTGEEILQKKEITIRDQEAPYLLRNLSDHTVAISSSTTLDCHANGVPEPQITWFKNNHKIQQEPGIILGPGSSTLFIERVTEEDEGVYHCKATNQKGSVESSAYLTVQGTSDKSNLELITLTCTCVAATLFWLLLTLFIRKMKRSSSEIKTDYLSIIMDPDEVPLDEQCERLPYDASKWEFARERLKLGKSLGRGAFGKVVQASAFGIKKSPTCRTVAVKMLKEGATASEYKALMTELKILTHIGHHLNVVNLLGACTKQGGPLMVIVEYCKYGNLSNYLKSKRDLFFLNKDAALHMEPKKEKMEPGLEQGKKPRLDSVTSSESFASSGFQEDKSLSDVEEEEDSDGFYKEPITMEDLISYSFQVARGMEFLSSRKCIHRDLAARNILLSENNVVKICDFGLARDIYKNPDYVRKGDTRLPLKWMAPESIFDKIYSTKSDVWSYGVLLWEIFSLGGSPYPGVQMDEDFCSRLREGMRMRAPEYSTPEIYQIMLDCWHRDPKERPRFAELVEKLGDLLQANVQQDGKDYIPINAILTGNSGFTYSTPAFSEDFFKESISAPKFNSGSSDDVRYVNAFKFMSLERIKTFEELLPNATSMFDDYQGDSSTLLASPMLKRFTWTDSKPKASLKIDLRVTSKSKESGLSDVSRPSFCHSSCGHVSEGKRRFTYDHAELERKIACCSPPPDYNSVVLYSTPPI

Angiopoietin-1 receptor = Angiopoietin-1 receptor (Homo sapiens, UniProt Q02763); experiment: Inhibition of TIE2 (unknown origin)
Angiopoietin-1 receptor, sequence (Q02763 whole entry): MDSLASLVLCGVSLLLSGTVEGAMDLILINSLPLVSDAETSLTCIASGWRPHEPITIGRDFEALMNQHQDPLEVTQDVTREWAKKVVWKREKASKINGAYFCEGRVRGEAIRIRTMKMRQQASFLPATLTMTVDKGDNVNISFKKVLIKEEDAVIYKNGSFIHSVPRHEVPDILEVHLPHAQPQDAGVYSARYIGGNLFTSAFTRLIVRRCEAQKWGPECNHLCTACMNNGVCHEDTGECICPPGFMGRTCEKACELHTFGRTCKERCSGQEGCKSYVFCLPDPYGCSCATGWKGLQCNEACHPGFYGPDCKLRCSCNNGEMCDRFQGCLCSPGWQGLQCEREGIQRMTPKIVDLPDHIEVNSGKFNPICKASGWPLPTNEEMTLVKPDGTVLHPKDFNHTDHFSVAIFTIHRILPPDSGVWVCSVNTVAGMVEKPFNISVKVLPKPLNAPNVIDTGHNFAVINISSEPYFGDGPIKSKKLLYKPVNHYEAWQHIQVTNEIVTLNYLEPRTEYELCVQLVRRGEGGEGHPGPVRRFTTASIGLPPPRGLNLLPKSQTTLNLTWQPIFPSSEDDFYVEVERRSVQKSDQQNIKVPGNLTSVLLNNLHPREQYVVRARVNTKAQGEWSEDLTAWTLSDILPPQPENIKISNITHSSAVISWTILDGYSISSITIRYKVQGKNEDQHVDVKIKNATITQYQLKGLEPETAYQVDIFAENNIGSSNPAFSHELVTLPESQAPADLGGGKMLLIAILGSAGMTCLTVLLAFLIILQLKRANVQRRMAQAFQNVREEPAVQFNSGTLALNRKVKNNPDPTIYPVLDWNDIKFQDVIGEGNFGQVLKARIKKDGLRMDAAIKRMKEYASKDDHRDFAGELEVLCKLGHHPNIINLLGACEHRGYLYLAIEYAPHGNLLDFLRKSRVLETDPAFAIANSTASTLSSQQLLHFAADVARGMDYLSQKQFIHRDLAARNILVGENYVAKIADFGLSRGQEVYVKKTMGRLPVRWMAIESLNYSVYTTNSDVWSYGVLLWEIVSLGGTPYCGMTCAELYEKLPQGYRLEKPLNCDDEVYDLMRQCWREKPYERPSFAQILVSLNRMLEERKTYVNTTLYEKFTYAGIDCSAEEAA

[5] = biological target: Serine/threonine-protein kinase SIK1 (Homo sapiens, UniProt P57059); experiment: Inhibition of SIK (unknown origin)
Serine/threonine-protein kinase SIK1, sequence (P57059 whole entry): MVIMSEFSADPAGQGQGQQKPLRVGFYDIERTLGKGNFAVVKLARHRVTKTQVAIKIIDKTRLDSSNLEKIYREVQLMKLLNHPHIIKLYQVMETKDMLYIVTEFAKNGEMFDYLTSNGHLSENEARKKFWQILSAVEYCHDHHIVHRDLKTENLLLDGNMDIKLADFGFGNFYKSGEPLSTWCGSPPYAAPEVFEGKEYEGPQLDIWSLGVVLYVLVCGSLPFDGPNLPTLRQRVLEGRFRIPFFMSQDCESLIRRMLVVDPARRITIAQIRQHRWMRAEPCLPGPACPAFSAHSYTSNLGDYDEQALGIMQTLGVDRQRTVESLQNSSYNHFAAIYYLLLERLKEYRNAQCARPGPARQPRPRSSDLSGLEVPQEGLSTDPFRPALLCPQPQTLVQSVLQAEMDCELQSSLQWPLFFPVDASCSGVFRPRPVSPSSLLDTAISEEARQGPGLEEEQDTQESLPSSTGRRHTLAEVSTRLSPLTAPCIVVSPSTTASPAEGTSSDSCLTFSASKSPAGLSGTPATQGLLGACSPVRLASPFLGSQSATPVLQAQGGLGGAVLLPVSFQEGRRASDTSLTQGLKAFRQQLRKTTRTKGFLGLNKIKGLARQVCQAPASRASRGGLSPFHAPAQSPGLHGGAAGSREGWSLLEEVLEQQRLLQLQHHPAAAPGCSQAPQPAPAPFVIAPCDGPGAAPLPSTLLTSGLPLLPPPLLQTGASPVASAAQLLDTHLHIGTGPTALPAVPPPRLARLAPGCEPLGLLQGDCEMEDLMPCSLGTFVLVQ

[6] = biological target: T2, Aurora kinase B/Inner centromere protein; experiment: Binding affinity to human AurB/INCENP assessed as inhibition constant using aurora sox peptide as substrate incubated for 60 mins in presence of ATP by fluorescence based assay; format: protein-complex assay
Aurora-C/INCENP [7] = biological target: T3, Aurora-C/INCENP; experiment: Binding affinity to human AurC/INCENP assessed as inhibition constant using aurora sox peptide as substrate incubated for 60 mins in presence of ATP by fluorescence based assay; format: protein-complex assay
[8] = biological target: T1, Aurora kinase B/Inner centromere protein (Homo sapiens); settings: dose 100.0 nM, time 60.0 min
[9] = biological target: T1, Aurora kinase B/Inner centromere protein (Homo sapiens); settings: dose 100.0 nM, time 60.0 min; remark: listed apart in the source
[10] = biological target: Aurora-C/INCENP (Homo sapiens) (UniProt Q9UQB9+Q9NQS7); settings: dose 100.0 nM, time 60.0 min

T1/2 [1] | SMILES | pIC50 [2] | pIC50 (Aurora-C/INCENP [3]) | pIC50 [4] | pIC50 (Angiopoietin-1 receptor) | pIC50 [5] | pKi [6] | pKi (Aurora-C/INCENP [7]) | inhibition [8] | T1/2 [9] | T1/2 [10]
15 min | CCN(CCCOc1ccc2c(Nc3cc(CC(=O)Nc4cccc(F)c4)[nH]n3)ncnc2c1)CCOP(=O)(O)O | – | – | – | – | – | – | – | – | – | –
25 min | Cc1cc(Nc2cc(N3CCN(C)CC3)nc(Sc3ccc(NC(=O)C4CC4)cc3)n2)n[nH]1 | – | – | – | – | – | – | – | – | – | –
– | CCn1cc(-c2ccnc3[nH]c(-c4cccc(CN(C)C)c4)cc23)c(-c2ccc(NC(=O)N(C)C)cc2)n1 [GSK-1070916] | 8.46 | 8.19 | 7.38 | 7.23 | 7.15 | 9.42 | 8.84 | Active | > 480 min | 270 min
